This is an account of results in paper PMC7660103, “Discovery of Novel 3-Cyanopyridines as Survivin Modulators and Apoptosis Inducers” (Molecules, 2020).

Structures are written as SMILES. A value given as a limit tells only on which side of the number the result lay.

For series [1], the system named is hepatocellular carcinoma (HepG2) cells. Kind of series: SRB cytotoxicity assay, HepG2. It is filed as cell-based, human. To be noted: for IC50: SRB assay, 72 h, mean ± SD of three experiments; for Selectivity Index HepG2: SI = IC50 on WI-38/IC50 on HepG2. As to the method:
(§1) In the present work, sulforhodamine B (SRB) colorimetric assay was done to evaluate the cytotoxic activity of the synthesized 3-cyano pyridines 4a–4e, 5a–5e, and 6a–6e on three human cancer cell lines: prostate carcinoma (PC-3), breast cancer (MDA-MB-231) and hepatocellular carcinoma (HepG2) cell lines. 5-FU was used as a standard drug for comparison.
(§2) Human cancer cells were obtained from Nawah Scientific Inc. (Mokatam, Cairo, Egypt). Cells were maintained in DMEM media containing […] streptomycin, 100 units/mL penicillin, and 10% heat-inactivated fetal bovine serum in humified, 5% (v/v) CO2 atmosphere at 37 °C.
(§3) Cell viability was estimated using the SRB assay. Aliquots of 100 µL cell suspension (5 × 10^3 cells) in 96-well plates were incubated in complete media for 24 h. Cells were treated with a second aliquot of 100 µL media containing various concentrations of the tested compounds (0.01, 0.1, 1, 10, and 100 μM). After 72 h, cells were fixed by replacing media with 15 µL of 10% TCA and then incubated at 4 °C for 1 h. After that, TCA solution was removed, and the cells were washed 5 times with distilled water. Aliquots of 70 µL SRB solution (0.4% w/v) were added and incubated in a dark place at room temperature for 10 min. Plates were washed 3 times with 1% acetic acid and allowed to air dry overnight. Then, 150 µL of TRIS (10 mM) was added to dissolve protein-bound SRB stain. The absorbance was measured at 540 nm using BMG LABTECH®-FLUO star Omega microplate reader (Ortenberg, Germany).

Series [2] has as its system prostate carcinoma (PC-3) cells. Description: SRB cytotoxicity assay, PC-3. It is filed as cell-based, human. The following applies: for IC50: SRB assay, 72 h, mean ± SD of three experiments; for Selectivity Index PC-3: SI = IC50 on WI-38/IC50 on PC-3. On the procedure:
as §1, §2, §3

In series [3] the test system is breast cancer (MDA-MB-231) cells. Description: SRB cytotoxicity assay, MDA-MB-231. To be noted: for IC50: SRB assay, 72 h, mean ± SD of three experiments; for Selectivity Index MDA-MB-231: SI = IC50 on WI-38/IC50 on MDA-MB-231. In kind it is cell-based, human. As to the method: as §1, §2, §3
In general terms: Sulforhodamine B stains cellular protein and so reports cell mass.

Series [4] deals with normal cell line WI-38. Description: SRB cytotoxicity assay, normal cell line WI-38. It is filed as cell-based. On the procedure: The cytotoxicity of the newly synthesized compounds on the normal cell line WI-38 was also evaluated in order to examine the safety of these compounds.
as §3

Setting [5] is: Homo sapiens, WI-38, mean ± SD of three experiments.

The IC50 is the concentration at which inhibition is half-maximal. Low readings indicate inhibition by little substance, high ones a need for much substance. On to `N#Cc1c(-c2ccccc2)cc(-c2ccc(OCc3ccc(F)cc3)cc2)nc1N` [Compound 4a, 2-Amino-6-(4-((4-fluorobenzyl)oxy)phenyl)-4-phenylnicotinonitrile], for which the IC50 is 109 ± 0.35 µM in series [1] (Homo sapiens, HepG2, 72 h); more than 100 µM in series [2] (Homo sapiens, PC-3); more than 100 µM in series [3] (Homo sapiens, MDA-MB-231, 72 h); 164 ± 4.5 µM in series [4] (setting [5]). In addition, the “Selectivity Index HepG2” value in series [1] came out at 1.50.

The melting point is the temperature of the solid-liquid transition. The compound `N#Cc1c(-c2ccc(F)cc2)cc(-c2ccc(OCc3ccc(F)cc3)cc2)nc1N` [Compound 4b, 2-Amino-6-(4-((4-fluorobenzyl)oxy)phenyl)-4-(4-fluorophenyl)nicotinonitrile] gave a melting point of 125 to 127 °C. The same compound came in with an IC50 in series [1] (Homo sapiens, HepG2, 72 h) of more than 100 µM. Further, in series [2] (Homo sapiens, PC-3), the IC50 was more than 100 µM. Also, the IC50 in series [3] (Homo sapiens, MDA-MB-231, 72 h) is more than 100 µM. The IC50 in series [4] (setting [5]) was determined as 127 ± 3.6 µM.

For the compound `N#Cc1c(-c2ccc(Cl)cc2)cc(-c2ccc(OCc3ccc(F)cc3)cc2)nc1N` [Compound 4c, 2-Amino-4-(4-chlorophenyl)-6-(4-((4-fluorobenzyl)oxy)phenyl)nicotinonitrile], the IC50 in series [1] (Homo sapiens, HepG2, 72 h) is 62 ± 0.61 µM; in series [2] (Homo sapiens, PC-3), more than 100 µM; in series [3] (Homo sapiens, MDA-MB-231, 72 h) it was more than 100 µM; in series [4] (setting [5]) it was 137 ± 4.15 µM. Besides, the “Selectivity Index HepG2” value in series [1] was determined as 2.20.

With `N#Cc1c(-c2ccc(Br)cc2)cc(-c2ccc(OCc3ccc(F)cc3)cc2)nc1N` [Compound 4d, 2-Amino-4-(4-bromophenyl)-6-(4-((4-fluorobenzyl)oxy)phenyl)nicotinonitrile], the IC50 in series [1] (Homo sapiens, HepG2, 72 h) is 66 ± 0.12 µM; in series [2] (Homo sapiens, PC-3), 53 ± 1.12 µM; in series [3] (Homo sapiens, MDA-MB-231, 72 h), 30 ± 0.18 µM; in series [4] (setting [5]), 104 ± 3.16 µM. For the same compound, in series [1], the “Selectivity Index HepG2” value was found to be 1.57. In series [2], the “Selectivity Index PC-3” value came to 1.96. In addition, the “Selectivity Index MDA-MB-231” value in series [3] amounted to 3.46.

For `COc1ccc(-c2cc(-c3ccc(OCc4ccc(F)cc4)cc3)nc(N)c2C#N)cc1` [Compound 4e, 2-Amino-6-(4-((4-fluorobenzyl)oxy)phenyl)-4-(4-methoxyphenyl)nicotinonitrile], the IC50 in series [1] (Homo sapiens, HepG2, 72 h) was more than 100 µM; in series [2] (Homo sapiens, PC-3) it was more than 100 µM; in series [3] (Homo sapiens, MDA-MB-231, 72 h) it was more than 100 µM; in series [4] (setting [5]) it was 94.7 ± 2.5 µM.

Turning to `O=c1[nH]cc(F)c(=O)[nH]1` [Compound 5-FU, reference compound], the IC50 was 7.51 ± 0.11 µM in series [1], 8.83 ± 0.09 µM in series [2], 9.35 ± 0.74 µM in series [3] and 7.91 ± 1.8 µM in series [4] (mean ± SD of three experiments).

For the compound `N#Cc1c(-c2ccccc2)cc(-c2ccc(OCc3ccc(F)cc3)cc2)[nH]c1=O` [Compound 5a, 6-(4-((4-Fluorobenzyl)oxy)phenyl)-2-oxo-4-phenyl-1,2-dihydropyridine-3-carbonitrile], the IC50 was 30 ± 0.59 µM in series [1] (Homo sapiens, HepG2, 72 h); 47.5 ± 0.611 µM in series [2] (Homo sapiens, PC-3); 52 ± 0.4 µM in series [3] (Homo sapiens, MDA-MB-231, 72 h); 174 ± 4.62 µM in series [4] (setting [5]). For the same compound, the “Selectivity Index HepG2” value in series [1] is 5.80. Further, the “Selectivity Index PC-3” value in series [2] is listed as 3.66. Moreover, in series [3], the “Selectivity Index MDA-MB-231” value is listed as 3.34.

As for `N#Cc1c(-c2ccc(F)cc2)cc(-c2ccc(OCc3ccc(F)cc3)cc2)[nH]c1=O` [Compound 5b, 6-(4-((4-Fluorobenzyl)oxy)phenyl)-4-(4-fluorophenyl)-2-oxo-1,2-dihydropyridine-3-carbonitrile], the IC50 in series [1] (Homo sapiens, HepG2, 72 h) is 21.8 ± 0.67 µM; in series [2] (Homo sapiens, PC-3), 34.2 ± 0.45 µM; in series [3] (Homo sapiens, MDA-MB-231, 72 h), 26.3 ± 0.73 µM; in series [4] (setting [5]), 132 ± 4.12 µM. The “Selectivity Index HepG2” value in series [1] was 6.02. In series [2], the “Selectivity Index PC-3” value is reported as 3.84. Further, in series [3], the “Selectivity Index MDA-MB-231” value was found to be 4.99.

For the compound `N#Cc1c(-c2ccc(Br)cc2)cc(-c2ccc(OCc3ccc(F)cc3)cc2)[nH]c1=O` [Compound 5d, 4-(4-Bromophenyl)-6-(4-((4-fluorobenzyl)oxy)phenyl)-2-oxo-1,2-dihydropyridine-3-carbonitrile], the IC50 was found to be 27.3 ± 0.74 µM in series [1] (Homo sapiens, HepG2, 72 h); 30.2 ± 0.85 µM in series [2] (Homo sapiens, PC-3); 34.8 ± 0.9 µM in series [3] (Homo sapiens, MDA-MB-231, 72 h); 181 ± 4.55 µM in series [4] (setting [5]). Besides, the “Selectivity Index HepG2” value in series [1] turned out to be 6.63. Also, in series [2], the “Selectivity Index PC-3” value is recorded as 5.99. For the same compound, in series [3], the “Selectivity Index MDA-MB-231” value is on record as 5.20.

As for `N#Cc1c(-c2ccccc2)cc(-c2ccc(OCc3ccc(F)cc3)cc2)[nH]c1=S` [Compound 6a, 6-(4-((4-Fluorobenzyl)oxy)phenyl)-4-phenyl-2-thioxo-1,2-dihydropyridine-3-carbonitrile], the IC50 was 60 ± 0.1 µM in series [1] (Homo sapiens, HepG2, 72 h); more than 100 µM in series [2] (Homo sapiens, PC-3); 72 ± 0.52 µM in series [3] (Homo sapiens, MDA-MB-231, 72 h); 97.4 ± 2.88 µM in series [4] (setting [5]). In addition, in series [1], the “Selectivity Index HepG2” value is on record as 1.62. Further, the “Selectivity Index MDA-MB-231” value in series [3] was 1.35.

As for `N#Cc1c(-c2ccc(F)cc2)cc(-c2ccc(OCc3ccc(F)cc3)cc2)[nH]c1=S` [Compound 6b, 6-(4-((4-Fluorobenzyl)oxy)phenyl)-4-(4-fluorophenyl)-2-thioxo-1,2-dihydropyridine-3-carbonitrile], the IC50 in series [1] (Homo sapiens, HepG2, 72 h) came out at 41 ± 0.69 µM; in series [2] (Homo sapiens, PC-3), 60 ± 0.93 µM; in series [3] (Homo sapiens, MDA-MB-231, 72 h), 66.7 ± 0.12 µM; in series [4] (setting [5]) it was 206 ± 4.73 µM. Further, in series [1], the “Selectivity Index HepG2” value turned out to be 5.01. Further, in series [2], the “Selectivity Index PC-3” value amounted to 3.42. In addition, the “Selectivity Index MDA-MB-231” value in series [3] was determined as 3.08.

With `N#Cc1c(-c2ccc(Cl)cc2)cc(-c2ccc(OCc3ccc(F)cc3)cc2)[nH]c1=S` [Compound 6c, 4-(4-Chlorophenyl)-6-(4-((4-fluorobenzyl)oxy)phenyl)-2-thioxo-1,2-dihydropyridine-3-carbonitrile], the IC50 was determined as 38 ± 0.94 µM in series [1] (Homo sapiens, HepG2, 72 h); 41.9 ± 0.61 µM in series [2] (Homo sapiens, PC-3); 42 ± 0.48 µM in series [3] (Homo sapiens, MDA-MB-231, 72 h); 89.6 ± 2.75 µM in series [4] (setting [5]). Besides, the “Selectivity Index HepG2” value in series [1] came out at 2.35. Also, the “Selectivity Index PC-3” value in series [2] is 2.13. In addition, the “Selectivity Index MDA-MB-231” value in series [3] is reported as 2.13.

In the case of `N#Cc1c(-c2ccc(Br)cc2)cc(-c2ccc(OCc3ccc(F)cc3)cc2)[nH]c1=S` [Compound 6d, 4-(4-Bromophenyl)-6-(4-((4-fluorobenzyl)oxy)phenyl)-2-thioxo-1,2-dihydropyridine-3-carbonitrile], the IC50 in series [1] (Homo sapiens, HepG2, 72 h) stood at 86 ± 0.15 µM; in series [2] (Homo sapiens, PC-3), 99 ± 0.19 µM; in series [3] (Homo sapiens, MDA-MB-231, 72 h) it was 71.2 ± 0.56 µM; in series [4] (setting [5]), 146 ± 4.55 µM. In addition, the “Selectivity Index HepG2” value in series [1] is listed as 1.69. In addition, the “Selectivity Index PC-3” value in series [2] worked out at 1.47. Also, the “Selectivity Index MDA-MB-231” value in series [3] is 2.04.

For the compound `COc1ccc(-c2cc(-c3ccc(OCc4ccc(F)cc4)cc3)[nH]c(=S)c2C#N)cc1` [Compound 6e, 6-(4-((4-Fluorobenzyl)oxy)phenyl)-4-(4-methoxyphenyl)-2-thioxo-1,2-dihydropyridine-3-carbonitrile], the IC50 is 40.3 µM in series [1] (Homo sapiens, HepG2, 72 h); 40.3 ± 0.99 µM in series [1]; 35.9 ± 0.92 µM in series [2] (Homo sapiens, PC-3); 23.4 µM in series [3] (Homo sapiens, MDA-MB-231, 72 h); 23.4 ± 0.7 µM in series [3]; 104 ± 3.16 µM in series [4] (setting [5]). Also, the “Selectivity Index HepG2” value in series [1] is 2.57. Further, in series [2], the “Selectivity Index PC-3” value worked out at 2.89. The “Selectivity Index MDA-MB-231” value in series [3] came out at 4.43.
